For data set [1], the system named is Escherichia coli NIH JC2 or Escherichia coli No. 29. Briefly: Time and concentration required for 99% sterilization, both strains together (Experiment 2). The note with it: in words. The data set is classed as cell-based. Here is the method:
Additionally, the bactericidal effects of CCL were compared with those of CEX through the following in vitro tests (details of the tests are described afterwards). The concentrations of CCL or CEX and the time which are needed for diminishing 99% of the inoculum size were measured (FIG. 2, Table 2).
Heart infusion broth (Nissui Pharmaceutical Co.)
The test microorganisms at the logarithmic growth phase (about 10^6 CFU/ml) were spread into the aforementioned broth placed in tubes, to which CCL or CEX was applied at prefixed serial concentrations. Changing in the number of viable microorganisms was monitored in order to measure the time required for 99% sterilization of the inoculum size in each tube.

Data set [2] deals with Staphylococcus aureus No. 6. Description: Susceptibility (MIC), Staphylococcus aureus No. 6 (Table 3). The data set is classed as cell-based. Here is the method:
(§1) 1.56 μg/ml: The value was determined by the above-identified method, where Muller-Hinton agar (Difco) as the medium was employed. Method 1.
(§2) The same procedures as in Experiment 3. were applied to the following strains. The following MIC values were also determined according to the same method as in Experiment 3.
(§3) The values with *^1 or *^2 were determined by the method 1 or 2
(§4) disclosed in Experiment 3, respectively.

For another data set, the system named is Escherichia coli ES-69. Briefly: Susceptibility (MIC), Escherichia coli ES-69 (Table 3). The data set is classed as cell-based. How it is done: as §1, §2, §3, §4
The test system of a further data set is Escherichia coli ES-80. Description: Susceptibility (MIC), Escherichia coli ES-80 (Table 3). It is filed as cell-based. How it is done:
as §1, §2, §3, §4

On the set-up of data set [3]: species or system healthy and adult men (volunteers). Conditions: human, in vivo, po. How it is done:
250 mg Capsules of Keflex® (Shionogi & Co., (LTD-Lilly) as CEX and 250 mg capsules of Kefral® (Shionogi & Co., LTD-Lilly) as CCL were employed.
The subjects, 12 healthy and adult men aged 21 to 39 years with 1.58 to 1.83 m^2 in the body surface area.
To each subject after fasting, who had no meal after supper of the previous day, were given orally the capsules with 100 ml of warm water, and the fasting was continued for 2 hours, except giving them a prefixed amount of water. CEX and CCL were given to the 12 subjects in a cross-over method, and any drugs other than CEX or CCL were not applied for one week.
The blood was collected 8 times, just before the administration, after 0.5, 0.75, 1, 1.5, 2, 3 and 6 hours. The plasma was centrifugally separated under cooling immediately after each collection, rapidly frozen and then preserved at -20° C. until the time of measurement.
The measurement were made within a week after the collection. After the frozen samples were allowed to melt at 4° C., a series of ten-fold dilution was prepared with 0.1M of phosphate buffer (pH 6.0), on which the blood level was measured by a band culture method using Micrococcus luteus ATCC 9341 as standard. Antibiotic Medium No. 8 (Difco; hereinafter referred to as ABM 8) was employed as a medium.

The test system of the next data set is Escherichia coli ES-68. Description: Susceptibility (MIC), Escherichia coli ES-68 (Table 3). It is filed as cell-based. Here is the method: as §1, §2, §3, §4
Data set [4] has as its system Escherichia coli NIH JC-2. Description: Minimum inhibitory concentration, Escherichia coli NIH JC-2 (Table 1). It is filed as cell-based. The note with it: NIHJC2, dilution method, Chemotherapy 29(1), 76-79 (1981). Here is the method:
(§5) Minimum Inhibitory Concentrations (MICs) were assayed according to the
(§6) dilution method disclosed in Chemotherapy 29(1), 76-79 (1981).

For data set [5] the following is noted: clinical use; cited from earlier work.
The conditions of data set [6]: relative to CEX; cited from earlier work.
For data set [7], the system named is Staphylococcus aureus No. 1037. Description: Susceptibility (MIC) of Staphylococcus aureus No. 1037. The data set is classed as cell-based. How it is done:
(2)Susceptibility of the test miocroorganisms (MIC value):
as §1

The test system of data set [8] is Staphylococcus aureus No. 1021. Briefly: Susceptibility (MIC), Staphylococcus aureus No. 1021 (Table 3). It is filed as cell-based. How it is done:
as §1, §2, §3, §4

For another data set, the system named is Escherichia coli No. 29. Description: Minimum inhibitory concentration, Escherichia coli No. 29 (Table 1). It is filed as cell-based. The note with it: dilution method, Chemotherapy 29(1), 76-79 (1981). How it is done:
as §5, §6

Usually MIC stands for the smallest concentration in the dilution series that meets the test's criterion for growth inhibition.

Structures are written as SMILES. Values after ≈ are worked out from the molar mass of the structure shown. “Also recorded” adds a separate entry of the source. Like-named read-outs stand apart in the source and are kept apart here.

On to `N[C@@H](C(=O)N[C@@H]1C(=O)N2C(C(=O)O)=C(Cl)CS[C@H]12)c1ccccc1` [CCL, 3-chloro-7-D-(2-phenylglycinamido)-3-cephem-4-carboxylic acid monohydrate], for which the “time required for 99% sterilization compared with CEX” value in data set [1] (relative to CEX, monohydrate) was “within a shorter period of time than CEX; also recorded: much shorter at any MIC of 1/2 to about 64 than for CEX”. In addition, the MIC came out at 6.25 µg/mL in data set [2] (NO.6, 10^5 CFU/ml, Method 2); 3.13 µg/mL in data set [2] (NO.6, 10^6 CFU/ml, Method 1); 3.13 µg/mL in the data set on Escherichia coli ES-69 (10^5 CFU/ml, Method 2); 3.13 µg/mL with Escherichia coli ES-69 (Escherichia coli, ES69, 10^6 CFU/ml, Method 1, read-out: MIC); 3.13 µg/mL with Escherichia coli ES-80 (ES80, 10^5 CFU/ml, Method 2); 1.56 µg/mL in the data set on Escherichia coli ES-80 (ES80, 10^6 CFU/ml, Method 1). Further, the MIC worked out at 3.13 µg/mL in the data set on Escherichia coli ES-68 (ES68, 10^5 CFU/ml, Method 2); 1.56 µg/mL against Escherichia coli ES-68 (ES68, 10^6 CFU/ml, Method 1); 3.13 µg/mL in data set [4]; 1.56 µg/mL in data set [7] (NO.1037, Method 1, Muller-Hinton agar); 3.13 µg/mL in data set [7] (NO.1037, Method 2, ABM 3 broth, 18 to 20 hours after inoculation (10^5 CFU/ml)); 3.13 µg/mL in data set [8] (NO.1021, 10^5 CFU/ml, Method 2). The MIC in [8] (NO.1021, 10^6 CFU/ml, Method 1) came out at 1.56 µg/mL; with Escherichia coli No. 29 it was 1.56 µg/mL. In data set [3], the “half-life compared with CEX” value is recorded as “half-life shorter”. Also, the clinical effectiveness entry in [5] is “highly effective in clinical use”. In [6], the “antimicrobial spectrum compared with CEX” value is listed as “broader spectrum”. In data set [6], the “bactericidal action compared with CEX” value is “more potent bactericidal action than CEX”.
As for `CC1=C(C(=O)O)N2C(=O)[C@@H](NC(=O)[C@H](N)c3ccccc3)[C@H]2SC1` [CEX], the “concentration needed for diminishing 99% of the inoculum size” value in [1] (multiples of MIC) is recorded as “at least one MIC; also recorded: one or more MICs”. In addition, the MIC was found to be 6.25 µg/mL (≈ 18 µM) in [4] and 3.13 µg/mL (≈ 9.01 µM) with Escherichia coli No. 29.

Source of the values: patent US4713247A, “Long-acting formulation of cefaclor” (priority 1983, dated 1987).
